This note sets out measurements from ChEMBL document CHEMBL1201862, “PubChem BioAssay data set” (2004).

Broadly, the GI50 is the concentration giving 50% growth inhibition.

Assay in all cases: DTP human tumour cell line panel, 48 h
The subject of experiment [1] is RPMI-8226.
Experiment [2] relates to OVCAR-3.
In experiment [3] the test system is RXF 393.
The test system of experiment [4] is IGROV-1.
In experiment [5] the test system is HOP-62.
Experiment [6] relates to HCT-15.
For experiment [7], the system named is SF-539.
Experiment [8] concerns SK-MEL-28.
In experiment [9] the test system is DU-145.
Experiment [10] has as its system BT-549.
In experiment [11] the test system is HOP-92.
Experiment [12] deals with Malme-3M.
The test system of experiment [13] is Hs-578T.
The test system of experiment [14] is TK-10.
Experiment [15] relates to SF-295.
The subject of experiment [16] is T47D.
Experiment [17] has as its system SK-MEL-5.
For experiment [18], the system named is NCI-H23.
The test system of experiment [19] is SNB-75.
Experiment [20] relates to NCI-H522.

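48-hour exposure; five concentrations; linearly interpolated endpoints. At the GI50, growth is halved.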 Calls of active or inactive are those of the source. Rule as the data show it: active = GI50 up to about 1.1 µM and inactive = higher.

For `OC1OC(c2ccco2)C(F)(F)C(F)(F)C1(F)F` (configuration not stated), the GI50 was 39.8 µM (inactive) in [1]; > 100 µM (inactive) in experiment [2]; > 100 µM (inactive) in [3]; > 100 µM (inactive) in [4]; > 100 µM (inactive) in [5]; 90.4 µM in experiment [6]. In addition, the GI50 is > 100 µM (inactive) in experiment [7]; > 100 µM (inactive) in experiment [8]; > 100 µM (inactive) in experiment [9]; > 100 µM (inactive) in [10]; 38 µM (inactive) in experiment [11]; 51.8 µM (inactive) in [12]. Besides, the GI50 in experiment [13] was 18.2 µM (inactive); in experiment [14] it was > 100 µM (inactive); in experiment [15], 68.7 µM (inactive); in experiment [16], 46.2 µM (inactive); in experiment [17] it was 35.2 µM (inactive).
Take `N#CCCN(CCC#N)c1ccc(/C=C2\N=C(c3ccccc3)N(NC(N)=S)C2=O)cc1`: the GI50 in experiment [1] was > 100 µM (inactive); in experiment [2] it was > 100 µM (inactive); in experiment [3], > 100 µM (inactive); in [4], > 100 µM (inactive); in experiment [5], > 100 µM (inactive); in experiment [6] it was above 100 µM. Further, the GI50 in experiment [7], in [8], in experiment [9], in experiment [10], in experiment [11] and in experiment [12] was > 100 µM (inactive) each time. The GI50 in experiment [13], in [14], in experiment [15], in experiment [16] and in experiment [17] was > 100 µM (inactive) in each case.
As to `NC(C(F)(F)F)(C(F)(F)F)P(=O)(Cc1ccccc1)Cc1ccccc1`, the GI50 is > 100 µM (inactive) in experiment [1]; > 100 µM (inactive) in experiment [2]; 28.9 µM (inactive) in experiment [3]; > 100 µM (inactive) in experiment [4]; 83.2 µM (inactive) in [5]; above 100 µM in experiment [6]. The GI50 in experiment [7] was 42.8 µM (inactive); in [8], > 100 µM (inactive); in experiment [9], > 100 µM (inactive); in experiment [10] it was > 100 µM (inactive); in experiment [12], > 100 µM (inactive); in experiment [18], > 100 µM (inactive). Further, the GI50 is 55.6 µM (inactive) in experiment [19]; 58.1 µM (inactive) in experiment [13]; > 100 µM (inactive) in experiment [14]; > 100 µM (inactive) in [15]; > 100 µM (inactive) in [16]; > 100 µM (inactive) in experiment [17].
On to `CSc1nc(=S)[nH]c2[nH]nc(C)c12`, for which the GI50 in experiment [1] was > 100 µM (inactive); in experiment [2], > 100 µM (inactive); in experiment [3] it was > 100 µM (inactive); in experiment [6], above 100 µM; in [7], > 100 µM (inactive); in experiment [8], > 100 µM (inactive). In addition, the GI50 in [9] was > 100 µM (inactive); in experiment [10] it was > 100 µM (inactive); in [12], > 100 µM (inactive); in experiment [20], 55 µM (inactive); in experiment [18] it was > 100 µM (inactive); in [19], > 100 µM (inactive). Further, the GI50 in experiment [13], in experiment [14], in experiment [16] and in experiment [17] was > 100 µM (inactive) each time.
Take `Nc1ccn(C2OC(C(OC3OC(CO)C(O)C(N)C3O)C(O)C(O)C(O)C(O)CO)C(N)C(O)C2O)c(=O)n1` (configuration not stated): the GI50 was > 100 µM (inactive) in experiment [1]; 22.4 µM (inactive) in experiment [2]; 30.7 µM (inactive) in experiment [4]; 20.7 µM (inactive) in experiment [5]; 36.3 µM in experiment [6]; 11.3 µM (inactive) in [7]. The GI50 in experiment [8] was > 100 µM (inactive); in [9], > 100 µM (inactive); in experiment [10], 31.3 µM (inactive); in experiment [11], 3.78 µM (inactive); in experiment [20], 22.5 µM (inactive); in experiment [18], > 100 µM (inactive). The GI50 was 1.98 µM (inactive) in [13]; 85.9 µM (inactive) in experiment [14]; 13.1 µM (inactive) in experiment [15]; > 100 µM (inactive) in experiment [16]; > 100 µM (inactive) in experiment [17].
With `CCCCCCCCP(=O)(O)OP(=O)(O)OCC1OC(n2ccc(N)nc2=O)C(O)C1O` (configuration not stated), the GI50 in [1] is > 100 µM (inactive); in experiment [2], > 100 µM (inactive); in experiment [3], > 100 µM (inactive); in [4], > 100 µM (inactive); in experiment [5], > 100 µM (inactive); in experiment [6] it was above 100 µM. Moreover, the GI50 in experiment [7], in experiment [8], in experiment [10], in experiment [11], in [12] and in [20] was > 100 µM (inactive) each time. Further, the GI50 in [18], in experiment [19], in [13], in [14], in experiment [15] and in experiment [16] was > 100 µM (inactive) each time. Besides, the GI50 in experiment [17] was > 100 µM (inactive).
Regarding `Cc1ccsc1/C(S)=N\c1ccc(Cl)c(/C=N/OC(C)(C)C)c1`, the GI50 was 26.4 µM (inactive) in [1]; 83.2 µM (inactive) in [2]; 14.8 µM (inactive) in experiment [3]; 28.9 µM (inactive) in [4]; 51.5 µM (inactive) in experiment [5]; 31.2 µM in [6]. For the same compound, the GI50 in experiment [7] is 50.5 µM (inactive); in experiment [8] it was 28.1 µM (inactive); in experiment [9], 25.5 µM (inactive); in experiment [10], 22.9 µM (inactive); in [11] it was 18 µM (inactive); in experiment [12], 40.2 µM (inactive). Further, the GI50 was 24 µM (inactive) in experiment [20]; 24.7 µM (inactive) in experiment [18]; 29.7 µM (inactive) in [13]; 16.6 µM (inactive) in experiment [14]; 28.1 µM (inactive) in experiment [15]; 23.6 µM (inactive) in experiment [16]. For the same compound, the GI50 in experiment [17] was 31.5 µM (inactive).
Regarding `COc1cc2c[n+](C)c3c4cc5c(cc4ccc3c2cc1OC)OCO5` [NITIDINE CHLORIDE], the GI50 is 2.06 µM (inactive) in [1]; 2.24 µM (inactive) in [2]; 12.4 µM (inactive) in [3]; 1.03 µM (active) in experiment [4]; 2.18 µM (inactive) in experiment [5]; above 100 µM in experiment [6]. In addition, the GI50 is 1.78 µM (inactive) in [7]; 9.38 µM (inactive) in experiment [8]; 2.52 µM (inactive) in experiment [9]; 6.5 µM (inactive) in experiment [10]; 2.07 µM (inactive) in experiment [11]; 14.5 µM (inactive) in experiment [12]. Also, the GI50 in experiment [20] is 0.24 µM (active); in [18] it was 1.07 µM (active); in [19], 0.22 µM (active); in experiment [13], 2.9 µM (inactive); in experiment [14], 29.3 µM (inactive); in [15], 5.93 µM (inactive). Further, the GI50 in [17] is 5.27 µM (inactive).
